According to article PMC5880945, “D-Arg^0-Bradykinin-Arg-Arg, a Latent Vasoactive Bradykinin B2 Receptor Agonist Metabolically Activated by Carboxypeptidases” (Frontiers in Pharmacology, 2018):
“Also recorded” adds a separate entry of the source. Read-outs that look alike come from different tables or passages of the source. Square brackets hold non-standard residues; d marks the D form. Peptide text beside a SMILES is read from it.

Assays:
[1] = target: T1, rat myc-B2R (bradykinin B2 receptor) (Rattus norvegicus, UniProt P25023); experiment: [3H]BK binding competition assay; settings: for affinity for rat B2R, in words: rat myc-B2R
T1 construct: expressed in transfected cells
T1 sequence (P25023 1-396): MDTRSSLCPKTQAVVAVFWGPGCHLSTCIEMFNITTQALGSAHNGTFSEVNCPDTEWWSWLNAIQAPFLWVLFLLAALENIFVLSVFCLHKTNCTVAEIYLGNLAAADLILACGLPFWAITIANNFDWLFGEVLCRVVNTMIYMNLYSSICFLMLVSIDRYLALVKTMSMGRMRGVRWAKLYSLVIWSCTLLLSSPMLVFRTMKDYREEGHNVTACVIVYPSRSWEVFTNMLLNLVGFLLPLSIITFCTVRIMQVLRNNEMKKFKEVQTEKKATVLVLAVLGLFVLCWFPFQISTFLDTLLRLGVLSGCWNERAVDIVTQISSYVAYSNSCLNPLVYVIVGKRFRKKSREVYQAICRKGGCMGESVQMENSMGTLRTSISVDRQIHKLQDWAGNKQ
Protocol: Affinity for the B2R was evaluated using a radioligand binding competition assay performed at 0°C in the presence of peptidase inhibitors that included captopril and PMSF ([Charest-Morin et al., 2014]). Briefly, the binding of 3 nM [^3H]bradykinin (Perkin Elmer Life Sciences; 90 Ci/mmol) to adherent intact Human Embryonic Kidney (HEK 293) cells stably expressing the myc-tagged rat B2R construction ([Charest-Morin et al., 2017]) was applied to construct binding competition curves for a series of unlabeled peptides.
(§1) Results are presented as means ± SEM. Radioligand binding data were fitted by non-linear regression to a one-site competition equation using a least-square method (Prism 5.0, GraphPad Software Inc., San Diego, CA, United States) and IC50 values calculated from this procedure. The same computer program was used to draw concentration-effect curves generated with the contractility assay (least square fitting of sigmoidal dose-response equation with variable slope) and to derive contractile EC50 values. Data describing the dose-response relationship of novel peptides vs. hypotension and heart rate changes, the baseline values of heart rate and mean arterial blood pressure and the effect of drugs on the hemodynamic responses to r-B K and r-BK-RR were assessed by using one-way analysis of variance (ANOVA) followed by the Dunnett’s test (repeated comparison with a common control; Prism 5.0 software).

[2] = system: B2R, human isolated umbilical vein; experiment: Human umbilical vein contractility assay (bioassay for the endogenous B2R); settings: for EC50: 95% confidence limits in parentheses, read-out: contractile EC50; for contractile potency, in words: human umbilical vein
Protocol: The institutional research ethics board (CHU de Québec) approved the anonymous use of human umbilical cord segments obtained after elective cesarean section deliveries (file number: 2012-323). Informed written consent was obtained from mothers. Umbilical vein rings, used as a contractile bioassay for the BK B2R, were prepared and suspended in organ baths and submitted to equilibration in Krebs’ solution as described ([Marceau et al., 1994]; [Gera et al., 2011]). The vascular preparation was used to assess the effect of the peptidase inhibitors (introduced 30 min before the agonist) on the apparent potency of r-BK and r-BK-RR. The full cumulative concentration-effect curves were recorded for each peptide; a large concentration of BK (9.4 μM) was added to record the maximal contractile effect mediated by the B2Rs for low potency agonists. Tissues were used only once and discarded; controls curves were obtained from other vascular rings from the same vein.
as §1

[3] = system: GFP-tagged rabbit B2R (B2R-GFP); experiment: B2R-GFP endocytosis and recycling, epifluorescence microscopy, HEK 293 cells; format: cell-based; settings: 30 min; for B2R-GFP internalization with Plummer’s inhibitor, in words: Plummer’s inhibitor alone
Protocol: This system, based on a serum-containing culture medium, contains ACE and Arg-carboxypeptidase activities ([Bachvarov et al., 2001]; [Charest-Morin et al., 2014]). r-BK or r-BK-RR were added to 35-mm Petri dishes containing the cells with optional pre-treatment with peptidase inhibitors and the cells were observed as described after 30 min of incubation at 37°C ([Charest-Morin et al., 2014]).

anesthetized rats = experiment: In vivo hemodynamics in anesthetized rats, dose-response; parameters: species or system male Sprague-Dawley rats; settings: for hypotensive potency, r-BK vs r-BK-RR, in words: i.v. bolus 0.025–12.8 μg/kg; for heart rate response, in words / peptide doses giving hypotensive response significantly greater than vehicle: i.v. bolus; for heart rate response, in words: after brief bradycardic injection artifact, statistically significant only at the highest tested doses; for peptide doses giving hypotensive response significantly greater than vehicle: vs BSA-saline vehicle (Dunnett’s test)
Protocol: All surgical and experimental procedures were reviewed and approved by the Animal Care and Handling Committee of Laval University, in accordance with the Canadian Council on Animal Care. Experiments were performed on male Sprague-Dawley rats (300–375 g) purchased from Charles River Laboratories (St-Constant, QC, Canada). The rats were housed in a light-controlled (12:12-h light-dark cycle (lights on at 0600)) and temperature-regulated room (22 ± 1°C). Animals had free access to normal chow diet and tap water. They were allowed to acclimate to their environmental conditions for 1 week prior to being studied. At the end of the acclimation period, the rats were anesthetised with sodium pentobarbital (50 mg kg^-1, i.p., supplemented as required) and had one catheter implanted into the right jugular vein [for intravenous (i.v.) injection] and one into the left femoral artery [for direct and continuous measurement of blood pressure and heart rate as previously described ([Jean et al., 2016])]. Experiments started at least 20 min following the end of surgery in anesthetised rats.
Baseline measurements of heart rate and phasic and mean arterial blood pressure were recorded over a period of 15 min in anesthetized rats. A dose response curve was then obtained by recording changes in blood pressure and heart rate elicited by i.v. injection of peptide vehicle followed by increasing doses (0.025–12.8 μg/kg) of r-BK or r-BK-RR. Peptides were dissolved in isotonic saline (0.9% NaCl) containing 0.1% BSA to prevent the adsorption of peptide to the glassware and plastic surfaces. All i.v. injections were given as 100 μl boluses which were washed in with a further 100 μl of saline (the dead space of the catheter). Only one peptide was tested per group of rats and each injection started with saline-BSA 0.1% followed by the lowest dose of peptide. The next dose was administered once all recorded cardiovascular parameters had returned to baseline after the previous injection (usually 2–10 min). At the end of the experiments each animal was euthanized with an overdose of sodium pentobarbital (240 mg/kg, i.v.).
as §1

[4] = + Plummer’s inhibitor 1 μM, 30 min before agonist
[5] = + enalaprilat 1 μM + Plummer’s inhibitor 1 μM, 30 min before agonist
[6] = + enalaprilat 1 μM, 30 min before agonist

SMILES | affinity for rat B2R, in words ([1]; [3H]BK binding competition) | EC50 [2, 4] [nM] | EC50 [2, 5] [nM] | EC50 [2, 6] [nM] | EC50 ([2]; control (no inhibitor)) [nM] | effect of enalaprilat and/or Plummer’s inhibitor on contractile response, in words ([2]; enalaprilat and/or Plummer’s inhibitor, 1 μM each) | contractile potency, in words [2] | B2R-GFP internalization, in words ([3]; 100 nM, 37°C, serum-containing culture medium, no inhibitor) | B2R-GFP internalization with Plummer’s inhibitor, in words ([3]; 100 nM, 15 min before) | proportion of cells exhibiting internalization of B2R-GFP ([3]; with enalaprilat and/or Plummer’s inhibitor (not influenced by any)) [%] | hypotensive potency, r-BK vs r-BK-RR, in words (anesthetized rats) | heart rate response, in words (anesthetized rats) | peptide doses giving hypotensive response significantly greater than vehicle (anesthetized rats) [µg/kg] | competition on the binding of [3H]BK to B2R, in words ([1]; 100 nM) | decrease of receptor affinity (less potent) ([1]; r-BK-RR, [3H]BK binding competition, rat B2R) [fold] | effect of combination Plummer’s inhibitor + enalaprilat vs. enalaprilat alone, in words ([2]; 1 μM each) | effect of Plummer’s inhibitor on apparent contractile potency, in words ([2]; Plummer’s inhibitor 1 μM) | B2R-GFP internalization with enalaprilat + Plummer’s inhibitor, in words ([3]; 100 nM, both inhibitors 15 min before) | B2R-GFP internalization with enalaprilat, in words ([3]; 100 nM, enalaprilat alone, 15 min before)
N=C(N)NCCC[C@@H](N)C(=O)N[C@@H](CCCNC(=N)N)C(=O)N1CCC[C@H]1C(=O)N1CCC[C@H]1C(=O)NCC(=O)N[C@@H](Cc1ccccc1)C(=O)N[C@@H](CO)C(=O)N1CCC[C@H]1C(=O)N[C@@H](Cc1ccccc1)C(=O)N[C@@H](CCCNC(=N)N)C(=O)O [r-BK, D-Arg^0-BK] (H-[dR]RPPGFSPFR-OH) | practically equal to that of BK | 68.4 | 45.1 | 61.6 | 62.4 | essentially unaffected; also recorded: enalaprilat failed to potentiate r-BK | potent contractile agent | the fluorescent receptor was internalized | no effect | > 90 | virtually equipotent hypotensive agents | brief tachycardic response, statistically significant only at the highest tested doses | ≥ 0.4 |  |  |  |  |  | 
N=C(N)NCCC[C@@H](N)C(=O)N[C@@H](CCCNC(=N)N)C(=O)N1CCC[C@H]1C(=O)N1CCC[C@H]1C(=O)NCC(=O)N[C@@H](Cc1ccccc1)C(=O)N[C@@H](CO)C(=O)N1CCC[C@H]1C(=O)N[C@@H](Cc1ccccc1)C(=O)N[C@@H](CCCNC(=N)N)C(=O)N[C@@H](CCCNC(=N)N)C(=O)N[C@@H](CCCNC(=N)N)C(=O)O [r-BK-RR, D-Arg^0-BK-Arg-Arg] (H-[dR]RPPGFSPFRRR-OH) | direct micromolar affinity; also recorded: very little direct affinity for B2R | 850 | 1760 | 1510 | 431 |  | less potent than r-BK but more potent than anticipated from the radioligand binding competition assay |  | only a partial effect |  | virtually equipotent hypotensive agents | brief tachycardic response, statistically significant only at the highest tested doses | ≥ 0.4 | little competition | 61 | not significantly more effective than enalaprilat alone | only slightly decreased the apparent potency | suppress the effect of r-BK-RR | suppress the effect of r-BK-RR
